Experimental data published in PubChem BioAssay AID248 (DTP/NCI, 2004).
Where “and” joins values, the source holds several entries; their conditions need not be identical. Equal entries are not always repeated. Inconclusive results and toxic doses are left out.

Tested on: L1210 leukemia ip in BDF1 mice, survival T/C
Test: NCI In Vivo Anticancer Drug Screen. Data for tumor model L1210 Leukemia (intraperitoneal) in B6D2F1 (BDF1) mice
Details: endpoint: mean survival time, higher = longer survival
Procedure, shortened: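 Each compound was tested against a transplantable tumor grown in mice. The endpoint was survival, with treated animals benchmarked against vehicle controls as a simple ratio.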

[1] = dose: 50.0 mg/kg/injection, schedule: Q01DX009 (ip), vehicle: saline with Tween-80
[2] = dose: 100.0 mg/kg/injection, schedule: Q01DX009 (ip), vehicle: saline with Tween-80
[3] = dose: 100.0 mg/kg/injection, schedule: Q04DX003 (ip), vehicle: saline with Tween-80
[4] = dose: 100.0 mg/kg/injection, schedule: Q01DX009 (ip), vehicle: Klucel (hydroxypropylcellulose) (HPC)
[5] = dose: 100.0 mg/kg/injection, schedule: Q04DX003 (ip), vehicle: Klucel (hydroxypropylcellulose) (HPC)
[6] = dose: 200.0 mg/kg/injection, schedule: Q04DX003 (ip), vehicle: Klucel (hydroxypropylcellulose) (HPC)
[7] = dose: 50.0 mg/kg/injection, schedule: Q01DX001 (ip), vehicle: saline
[8] = dose: 100.0 mg/kg/injection, schedule: Q01DX001 (ip), vehicle: saline
[9] = dose: 200.0 mg/kg/injection, schedule: Q01DX009 (ip), vehicle: saline with Tween-80

O=C1c2ccccc2C(=O)N1c1cc(OCc2ccccc2)cc(OCc2ccccc2)c1
T/C (dose: 100.0 mg/kg/injection, schedule: Q01DX009 (ip), vehicle: water): 94 % of control
T/C (dose: 100.0 mg/kg/injection, schedule: Q04DX003 (ip), vehicle: water): 104 % of control
T/C (dose: 200.0 mg/kg/injection, schedule: Q01DX009 (ip), vehicle: water): 91 % of control
T/C (dose: 200.0 mg/kg/injection, schedule: Q04DX003 (ip), vehicle: water): 102 % of control
T/C (dose: 400.0 mg/kg/injection, schedule: Q01DX009 (ip), vehicle: water): 91 % of control
T/C (dose: 400.0 mg/kg/injection, schedule: Q04DX003 (ip), vehicle: water): 102 % of control

Cc1cc(C)c2c(c1)CC2NC(=O)Cc1ccccc1 (configuration not stated)
T/C (dose: 25.0 mg/kg/injection, schedule: Q04DX002 (ip), vehicle: Klucel (hydroxypropylcellulose) (HPC)): 116 % of control
T/C (dose: 50.0 mg/kg/injection, schedule: Q04DX002 (ip), vehicle: Klucel (hydroxypropylcellulose) (HPC)): 89 % of control
T/C (dose: 100.0 mg/kg/injection, schedule: Q04DX002 (ip), vehicle: Klucel (hydroxypropylcellulose) (HPC)): 92 % of control

COc1ccccc1OS(=O)(=O)c1ccc(COc2ccc([N+](=O)[O-])cc2Cl)cc1
T/C (dose: 100.0 mg/kg/injection, schedule: Q01DX001 (ip), vehicle: Klucel (hydroxypropylcellulose) (HPC)): 93 % of control
T/C (dose: 200.0 mg/kg/injection, schedule: Q01DX001 (ip), vehicle: Klucel (hydroxypropylcellulose) (HPC)): 98 % of control
T/C (dose: 400.0 mg/kg/injection, schedule: Q01DX001 (ip), vehicle: Klucel (hydroxypropylcellulose) (HPC)): 96 % of control

CC1(O)C=CCC1 (configuration not stated)
T/C (dose: 75.0 mg/kg/injection, schedule: Q01DX001 (ip), vehicle: carboxymethylcellulose (CMC)): 104 % of control
T/C (dose: 150.0 mg/kg/injection, schedule: Q01DX001 (ip), vehicle: carboxymethylcellulose (CMC)): 102 % of control

OC(CSc1ccccc1)(c1ccccc1)c1ccccc1
T/C (dose: 56.3 mg/kg/injection, schedule: Q03DX002 (ip), vehicle: saline with Tween-80): 121 % of control
T/C (dose: 112.0 mg/kg/injection, schedule: Q03DX002 (ip), vehicle: saline with Tween-80): 102 % of control

CCCCN(CCCC)CC(C)O (configuration not stated)
T/C (dose: 25.0 mg/kg/injection, schedule: Q01DX009 (ip), vehicle: saline with Tween-80): 101 % of control
T/C (dose: 25.0 mg/kg/injection, schedule: Q04DX003 (ip), vehicle: saline with Tween-80): 104 % of control
T/C [1]: 95 % of control
T/C (dose: 50.0 mg/kg/injection, schedule: Q04DX003 (ip), vehicle: saline with Tween-80): 96 % of control
T/C [2]: 104 % of control
T/C [3]: 98 % of control and 101 % of control

CCN(CC)c1ccc(/C=C/c2ccncc2)cc1
T/C [4]: 93 % of control
T/C [5]: 104 % of control
T/C (dose: 200.0 mg/kg/injection, schedule: Q01DX009 (ip), vehicle: Klucel (hydroxypropylcellulose) (HPC)): 92 % of control
T/C [6]: 96 % of control
T/C (dose: 400.0 mg/kg/injection, schedule: Q01DX009 (ip), vehicle: Klucel (hydroxypropylcellulose) (HPC)): 90 % of control
T/C (dose: 400.0 mg/kg/injection, schedule: Q04DX003 (ip), vehicle: Klucel (hydroxypropylcellulose) (HPC)): 93 % of control

CS(=O)(=O)OCCNC[C@@H](O)[C@@H](O)CNCCOS(C)(=O)=O
T/C (dose: 0.8 mg/kg/injection, schedule: Q01DX001 (ip), vehicle: saline): 101 % of control
T/C (dose: 1.4 mg/kg/injection, schedule: Q01DX001 (ip), vehicle: saline): 112 % of control and 121 % of control
T/C (dose: 2.3 mg/kg/injection, schedule: Q01DX001 (ip), vehicle: saline): 112 % of control and 123 % of control
T/C (dose: 6.5 mg/kg/injection, schedule: Q01DX001 (ip), vehicle: saline): 122 % of control
T/C (dose: 18.0 mg/kg/injection, schedule: Q01DX001 (ip), vehicle: saline): 161 % of control
T/C (dose: 30.0 mg/kg/injection, schedule: Q01DX001 (ip), vehicle: saline): 151 % of control and 186 % of control
T/C [7]: 207 % of control
T/C [8]: 108 % of control

Cc1ccc(S(=O)(=O)Nc2ccccc2SSc2ccccc2NS(=O)(=O)c2ccc(C)cc2)cc1
T/C [2]: 97 % of control
T/C [3]: 101 % of control
T/C [9]: 97 % of control
T/C (dose: 200.0 mg/kg/injection, schedule: Q04DX003 (ip), vehicle: saline with Tween-80): 97 % of control
T/C (dose: 400.0 mg/kg/injection, schedule: Q01DX009 (ip), vehicle: saline with Tween-80): 90 % of control
T/C (dose: 400.0 mg/kg/injection, schedule: Q04DX003 (ip), vehicle: saline with Tween-80): 95 % of control

O=[N+]([O-])/C=C/c1ccc([N+](=O)[O-])cc1
T/C (dose: 6.25 mg/kg/injection, schedule: Q01DX005 (ip), vehicle: saline with Tween-80): 110 % of control
T/C (dose: 12.5 mg/kg/injection, schedule: Q01DX005 (ip), vehicle: saline with Tween-80): 104 % of control
T/C (dose: 25.0 mg/kg/injection, schedule: Q01DX005 (ip), vehicle: saline with Tween-80): 114 % of control
T/C (dose: 50.0 mg/kg/injection, schedule: Q01DX009 (ip), vehicle: Klucel (hydroxypropylcellulose) (HPC)): 93 % of control
T/C [4]: 97 % of control
T/C [5]: 96 % of control
T/C [6]: 104 % of control

O=C(O)/C(Cl)=C(/Cl)C(Cl)=C(Cl)Cl
T/C [1]: 97 % of control

CCCCNC(=O)C1CC2c3cccc4c3c(cn4C)CC2N(C)C1 (configuration not stated)
T/C (dose: 3.12 mg/kg/injection, schedule: Q01DX009 (ip), vehicle: saline): 100 % of control
T/C (dose: 6.25 mg/kg/injection, schedule: Q01DX009 (ip), vehicle: saline): 92 % of control
T/C (dose: 12.5 mg/kg/injection, schedule: Q01DX009 (ip), vehicle: saline): 100 % of control
T/C (dose: 25.0 mg/kg/injection, schedule: Q01DX009 (ip), vehicle: saline): 94 % of control
T/C (dose: 50.0 mg/kg/injection, schedule: Q01DX009 (ip), vehicle: saline): 101 % of control

CC1=C(/C=C/C(C)=C/C=C/C(C)=C/CO)C(C)(C)CCC1
T/C (dose: 50.0 mg/kg/injection, schedule: Q01DX009 (ip), vehicle: steriod suspending solution): 90 % of control
T/C (dose: 100.0 mg/kg/injection, schedule: Q01DX001 (ip), vehicle: other): 100 % of control
T/C (dose: 100.0 mg/kg/injection, schedule: Q01DX009 (ip), vehicle: steriod suspending solution): 95 % of control
T/C (dose: 150.0 mg/kg/injection, schedule: Q01DX001 (ip), vehicle: other): 98 % of control
T/C (dose: 200.0 mg/kg/injection, schedule: Q01DX001 (ip), vehicle: other): 95 % of control and 102 % of control
T/C (dose: 200.0 mg/kg/injection, schedule: Q01DX001 (sc), vehicle: steriod suspending solution): 101 % of control
T/C (dose: 400.0 mg/kg/injection, schedule: Q01DX001 (sc), vehicle: steriod suspending solution): 98 % of control

O=C(O)CSC(=S)c1ccccc1
T/C (dose: 25.0 mg/kg/injection, schedule: Q04DX002 (ip), vehicle: saline with Tween-80): 103 % of control
T/C (dose: 50.0 mg/kg/injection, schedule: Q04DX002 (ip), vehicle: saline with Tween-80): 103 % of control
T/C (dose: 50.0 mg/kg/injection, schedule: Q04DX003 (ip), vehicle: Klucel (hydroxypropylcellulose) (HPC)): 108 % of control
T/C [2]: 93 % of control
T/C (dose: 100.0 mg/kg/injection, schedule: Q04DX002 (ip), vehicle: saline with Tween-80): 118 % of control
T/C [5]: 97 % of control
T/C (dose: 100.0 mg/kg/injection, schedule: Q04DX003 (ip), vehicle: saline): 97 % of control
T/C [9]: 93 % of control
T/C [6]: 105 % of control
T/C (dose: 200.0 mg/kg/injection, schedule: Q04DX003 (ip), vehicle: saline): 100 % of control
T/C (dose: 400.0 mg/kg/injection, schedule: Q04DX003 (ip), vehicle: saline): 97 % of control

CCC(CC)(c1ccccc1)C(O)c1ccccc1 (configuration not stated)
T/C [7]: 97 % of control
T/C [8]: 97 % of control
T/C (dose: 200.0 mg/kg/injection, schedule: Q01DX001 (ip), vehicle: saline): 103 % of control
T/C (dose: 400.0 mg/kg/injection, schedule: Q01DX001 (ip), vehicle: saline): 101 % of control

COC(=O)c1cc(C2OCC3OC(C)(C)OC32)[nH]n1 (configuration not stated)
T/C (dose: 100.0 mg/kg/injection, schedule: Q01DX005 (ip), vehicle: saline): 96 % of control
T/C (dose: 200.0 mg/kg/injection, schedule: Q01DX005 (ip), vehicle: saline): 100 % of control

CC(C)(C)C(C)(C)O
T/C (dose: 75.0 mg/kg/injection, schedule: Q01DX001 (ip), vehicle: saline with Tween-80): 100 % of control
T/C (dose: 150.0 mg/kg/injection, schedule: Q01DX001 (ip), vehicle: saline with Tween-80): 97 % of control
T/C (dose: 300.0 mg/kg/injection, schedule: Q01DX001 (ip), vehicle: saline with Tween-80): 92 % of control
